Test results from ChEMBL document CHEMBL1147101, “Development and persistence of antimicrobial resistance in Pseudomonas aeruginosa: a longitudinal observation in mechanically ventilated patients” (Antimicrob Agents Chemother, 2007).
Activity calls are given as the source filed them. The rule behind the calls is not given here.

Columns and labels:
Type in all cases: functional, organism-based
Settings in all cases: Trachea
Pseudomonas aeruginosa [1] = assay: Antimicrobial activity against Pseudomonas aeruginosa 24E2 tracheal isolates from mechanically ventilated chronic respiratory insufficiency patient
Pseudomonas aeruginosa [2] = assay: Antimicrobial activity against Pseudomonas aeruginosa 9A10 tracheal isolates from mechanically ventilated chronic respiratory insufficiency patient
Pseudomonas aeruginosa [3] = assay: Antimicrobial activity against Pseudomonas aeruginosa 65.33-4 tracheal isolates from mechanically ventilated tuberculosis patient
Pseudomonas aeruginosa [4] = assay: Antimicrobial activity against Pseudomonas aeruginosa 65.38-4 tracheal isolates from mechanically ventilated tuberculosis patient
Pseudomonas aeruginosa [5] = assay: Antimicrobial activity against Pseudomonas aeruginosa 16D2 tracheal isolates from mechanically ventilated chronic respiratory insufficiency patient
Pseudomonas aeruginosa [6] = assay: Antimicrobial activity against Pseudomonas aeruginosa 19C12 tracheal isolates from mechanically ventilated chronic respiratory insufficiency patient
Pseudomonas aeruginosa [7] = assay: Antimicrobial activity against Pseudomonas aeruginosa 13D6 tracheal isolates from mechanically ventilated chronic respiratory insufficiency patient
Pseudomonas aeruginosa [8] = assay: Antimicrobial activity against Pseudomonas aeruginosa 24E1 tracheal isolates from mechanically ventilated chronic respiratory insufficiency patient
Pseudomonas aeruginosa [9] = assay: Antimicrobial activity against Pseudomonas aeruginosa 19B1 tracheal isolates from mechanically ventilated chronic respiratory insufficiency patient
Pseudomonas aeruginosa [10] = assay: Antimicrobial activity against Pseudomonas aeruginosa 65.18-3 tracheal isolates from mechanically ventilated tuberculosis patient
Pseudomonas aeruginosa [11] = assay: Antimicrobial activity against Pseudomonas aeruginosa 15G2 tracheal isolates from mechanically ventilated chronic respiratory insufficiency patient
Pseudomonas aeruginosa [12] = assay: Antimicrobial activity against Pseudomonas aeruginosa 1A9 tracheal isolates from mechanically ventilated tuberculosis patient
Pseudomonas aeruginosa [13] = assay: Antimicrobial activity against Pseudomonas aeruginosa 2F6 tracheal isolates from mechanically ventilated tuberculosis patient
Pseudomonas aeruginosa [14] = assay: Antimicrobial activity against Pseudomonas aeruginosa 65.18-1 tracheal isolates from mechanically ventilated tuberculosis patient
Pseudomonas aeruginosa [15] = assay: Antimicrobial activity against Pseudomonas aeruginosa 19E1 tracheal isolates from mechanically ventilated chronic respiratory insufficiency patient
Pseudomonas aeruginosa [16] = assay: Antimicrobial activity against Pseudomonas aeruginosa 19C5 tracheal isolates from mechanically ventilated chronic respiratory insufficiency patient
Pseudomonas aeruginosa [17] = assay: Antimicrobial activity against Pseudomonas aeruginosa 19F2 tracheal isolates from mechanically ventilated chronic respiratory insufficiency patient
Pseudomonas aeruginosa [18] = assay: Antimicrobial activity against Pseudomonas aeruginosa 13D3 tracheal isolates from mechanically ventilated chronic respiratory insufficiency patient
Pseudomonas aeruginosa [19] = assay: Antimicrobial activity against Pseudomonas aeruginosa 23C5 tracheal isolates from mechanically ventilated chronic respiratory insufficiency patient
Pseudomonas aeruginosa [20] = assay: Antimicrobial activity against Pseudomonas aeruginosa 65.18-2 tracheal isolates from mechanically ventilated tuberculosis patient
Pseudomonas aeruginosa [21] = assay: Antimicrobial activity against Pseudomonas aeruginosa 19F1 tracheal isolates from mechanically ventilated chronic respiratory insufficiency patient
Pseudomonas aeruginosa [22] = assay: Antimicrobial activity against Pseudomonas aeruginosa 2A3 tracheal isolates from mechanically ventilated tuberculosis patient
Pseudomonas aeruginosa [23] = assay: Antimicrobial activity against Pseudomonas aeruginosa 24E6 tracheal isolates from mechanically ventilated chronic respiratory insufficiency patient
Pseudomonas aeruginosa [24] = assay: Antimicrobial activity against Pseudomonas aeruginosa 13D11 tracheal isolates from mechanically ventilated chronic respiratory insufficiency patient
Pseudomonas aeruginosa [25] = assay: Antimicrobial activity against Pseudomonas aeruginosa 2B5 tracheal isolates from mechanically ventilated tuberculosis patient
Pseudomonas aeruginosa [26] = assay: Antimicrobial activity against Pseudomonas aeruginosa 3B1 tracheal isolates from mechanically ventilated tuberculosis patient
Pseudomonas aeruginosa [27] = assay: Antimicrobial activity against Pseudomonas aeruginosa 22E3 tracheal isolates from mechanically ventilated chronic respiratory insufficiency patient
Pseudomonas aeruginosa [28] = assay: Antimicrobial activity against Pseudomonas aeruginosa 29H1 tracheal isolates from mechanically ventilated chronic respiratory insufficiency patient
Pseudomonas aeruginosa [29] = assay: Antimicrobial activity against Pseudomonas aeruginosa 15G10 tracheal isolates from mechanically ventilated chronic respiratory insufficiency patient
Pseudomonas aeruginosa [30] = assay: Antimicrobial activity against Pseudomonas aeruginosa 22D9 tracheal isolates from mechanically ventilated chronic respiratory insufficiency patient
Pseudomonas aeruginosa [31] = assay: Antimicrobial activity against Pseudomonas aeruginosa 29G8 tracheal isolates from mechanically ventilated chronic respiratory insufficiency patient
Pseudomonas aeruginosa [32] = assay: Antimicrobial activity against Pseudomonas aeruginosa 10A6 tracheal isolates from mechanically ventilated chronic respiratory insufficiency patient
Pseudomonas aeruginosa [33] = assay: Antimicrobial activity against Pseudomonas aeruginosa 16D5 tracheal isolates from mechanically ventilated chronic respiratory insufficiency patient
Pseudomonas aeruginosa [34] = assay: Antimicrobial activity against Pseudomonas aeruginosa 12A7 tracheal isolates from mechanically ventilated chronic respiratory insufficiency patient
Pseudomonas aeruginosa [35] = assay: Antimicrobial activity against Pseudomonas aeruginosa 1C9 tracheal isolates from mechanically ventilated tuberculosis patient
Pseudomonas aeruginosa [36] = assay: Antimicrobial activity against Pseudomonas aeruginosa 2A1 tracheal isolates from mechanically ventilated tuberculosis patient
Pseudomonas aeruginosa [37] = assay: Antimicrobial activity against Pseudomonas aeruginosa IC7 tracheal isolates from mechanically ventilated tuberculosis patient
Pseudomonas aeruginosa [38] = assay: Antimicrobial activity against Pseudomonas aeruginosa 65.36-2 tracheal isolates from mechanically ventilated tuberculosis patient
Pseudomonas aeruginosa [39] = assay: Antimicrobial activity against Pseudomonas aeruginosa 19E12 tracheal isolates from mechanically ventilated chronic respiratory insufficiency patient
Pseudomonas aeruginosa [40] = assay: Antimicrobial activity against Pseudomonas aeruginosa 19E9 tracheal isolates from mechanically ventilated chronic respiratory insufficiency patient
Pseudomonas aeruginosa [41] = assay: Antimicrobial activity against Pseudomonas aeruginosa 19D10 tracheal isolates from mechanically ventilated chronic respiratory insufficiency patient
Pseudomonas aeruginosa [42] = assay: Antimicrobial activity against Pseudomonas aeruginosa 24D1 tracheal isolates from mechanically ventilated chronic respiratory insufficiency patient
Pseudomonas aeruginosa [43] = assay: Antimicrobial activity against Pseudomonas aeruginosa 19E2 tracheal isolates from mechanically ventilated chronic respiratory insufficiency patient
Pseudomonas aeruginosa [44] = assay: Antimicrobial activity against Pseudomonas aeruginosa IA5 tracheal isolates from mechanically ventilated tuberculosis patient
Pseudomonas aeruginosa [45] = assay: Antimicrobial activity against Pseudomonas aeruginosa 24F4 tracheal isolates from mechanically ventilated chronic respiratory insufficiency patient
Pseudomonas aeruginosa [46] = assay: Antimicrobial activity against Pseudomonas aeruginosa 24D5 tracheal isolates from mechanically ventilated chronic respiratory insufficiency patient
Pseudomonas aeruginosa [47] = assay: Antimicrobial activity against Pseudomonas aeruginosa 65.33-3 tracheal isolates from mechanically ventilated tuberculosis patient
Pseudomonas aeruginosa [48] = assay: Antimicrobial activity against Pseudomonas aeruginosa 65.38-2 tracheal isolates from mechanically ventilated tuberculosis patient
Pseudomonas aeruginosa [49] = assay: Antimicrobial activity against Pseudomonas aeruginosa 19C2 tracheal isolates from mechanically ventilated chronic respiratory insufficiency patient

## CO/N=C(\C(=O)N[C@@H]1C(=O)N2C(C(=O)[O-])=C(C[N+]3(C)CCCC3)CS[C@H]12)c1csc(N)n1
Pseudomonas aeruginosa [1]
  Activity: Active
Pseudomonas aeruginosa [2]
  Activity: Active
Pseudomonas aeruginosa [3]
  Activity: Active
Pseudomonas aeruginosa [4]
  Activity: Active
Pseudomonas aeruginosa [5]
  Activity: Active
Pseudomonas aeruginosa [6]
  Activity: Active
Pseudomonas aeruginosa [7]
  Activity: Active
Pseudomonas aeruginosa [8]
  Activity: Active
Pseudomonas aeruginosa [9]
  Activity: Active
Pseudomonas aeruginosa [10]
  Activity: Active
Pseudomonas aeruginosa [11]
  Activity: Active
Pseudomonas aeruginosa [12]
  Activity: Active
Pseudomonas aeruginosa [13]
  Activity: inactive
Pseudomonas aeruginosa [14]
  Activity: Active
Pseudomonas aeruginosa [15]
  Activity: Active
Pseudomonas aeruginosa [16]
  Activity: Active
Pseudomonas aeruginosa [17]
  Activity: Active
Pseudomonas aeruginosa [18]
  Activity: Active
Pseudomonas aeruginosa [19]
  Activity: Active
Pseudomonas aeruginosa [20]
  Activity: Active
Pseudomonas aeruginosa [21]
  Antimicrobial activity: Active
Pseudomonas aeruginosa [22]
  Activity: Active
Pseudomonas aeruginosa [23]
  Activity: Active
Pseudomonas aeruginosa [24]
  Activity: Active
Pseudomonas aeruginosa [25]
  Activity: Active
Pseudomonas aeruginosa [26]
  Activity: Active
Pseudomonas aeruginosa [27]
  Activity: Active
Pseudomonas aeruginosa [28]
  Activity: inactive
Pseudomonas aeruginosa [29]
  Activity: Active
Pseudomonas aeruginosa [30]
  Activity: Active
Pseudomonas aeruginosa [31]
  Activity: Active
Pseudomonas aeruginosa [32]
  Activity: Active
Pseudomonas aeruginosa [33]
  Activity: Active
Pseudomonas aeruginosa [34]
  Activity: Active
Pseudomonas aeruginosa [35]
  Activity: Active
Pseudomonas aeruginosa [36]
  Activity: Active
Pseudomonas aeruginosa [37]
  Activity: Active
Pseudomonas aeruginosa [38]
  Activity: Active
Pseudomonas aeruginosa [39]
  Activity: Active
Pseudomonas aeruginosa [40]
  Activity: Active
Pseudomonas aeruginosa [41]
  Activity: Active
Pseudomonas aeruginosa [42]
  Activity: Active
Pseudomonas aeruginosa [43]
  Activity: Active
Pseudomonas aeruginosa [44]
  Activity: Active

## C[C@@H](O)[C@H]1C(=O)N2C(C(=O)O)=C(SCCNC=N)C[C@H]12
Pseudomonas aeruginosa [1]
  Activity: Active
Pseudomonas aeruginosa [2]
  Activity: Active
Pseudomonas aeruginosa [3]
  Activity: inactive
Pseudomonas aeruginosa [45]
  Activity: Active
Pseudomonas aeruginosa [46]
  Activity: Active
Pseudomonas aeruginosa [5]
  Activity: Active
Pseudomonas aeruginosa [6]
  Activity: Active
Pseudomonas aeruginosa [7]
  Activity: Active
Pseudomonas aeruginosa [8]
  Activity: Active
Pseudomonas aeruginosa [9]
  Activity: Active
Pseudomonas aeruginosa [10]
  Activity: inactive
Pseudomonas aeruginosa [11]
  Activity: Active
Pseudomonas aeruginosa [12]
  Activity: inactive
Pseudomonas aeruginosa [13]
  Activity: inactive
Pseudomonas aeruginosa [14]
  Activity: Active
Pseudomonas aeruginosa [15]
  Activity: Active
Pseudomonas aeruginosa [17]
  Activity: Active
Pseudomonas aeruginosa [18]
  Activity: Active
Pseudomonas aeruginosa [19]
  Activity: Active
Pseudomonas aeruginosa [20]
  Activity: Active
Pseudomonas aeruginosa [47]
  Activity: inactive
Pseudomonas aeruginosa [21]
  Antimicrobial activity: Active
Pseudomonas aeruginosa [22]
  Activity: inactive
Pseudomonas aeruginosa [23]
  Activity: Active
Pseudomonas aeruginosa [24]
  Activity: Active
Pseudomonas aeruginosa [25]
  Activity: inactive
Pseudomonas aeruginosa [26]
  Activity: inactive
Pseudomonas aeruginosa [48]
  Activity: inactive
Pseudomonas aeruginosa [27]
  Activity: Active
Pseudomonas aeruginosa [29]
  Activity: Active
Pseudomonas aeruginosa [30]
  Activity: Active
Pseudomonas aeruginosa [49]
  Activity: Active
Pseudomonas aeruginosa [32]
  Activity: Active
Pseudomonas aeruginosa [33]
  Activity: Active
Pseudomonas aeruginosa [34]
  Activity: Active
Pseudomonas aeruginosa [36]
  Activity: inactive
Pseudomonas aeruginosa [37]
  Activity: inactive
Pseudomonas aeruginosa [38]
  Activity: inactive
Pseudomonas aeruginosa [39]
  Activity: Active
Pseudomonas aeruginosa [40]
  Activity: Active
Pseudomonas aeruginosa [41]
  Activity: Active
Pseudomonas aeruginosa [43]
  Activity: Active

## O=C(O)c1cn(C2CC2)c2cc(N3CCNCC3)c(F)cc2c1=O
Pseudomonas aeruginosa [2]
  Activity: Active
Pseudomonas aeruginosa [3]
  Activity: Active
Pseudomonas aeruginosa [45]
  Activity: Active
Pseudomonas aeruginosa [4]
  Activity: Active
Pseudomonas aeruginosa [10]
  Activity: Active
Pseudomonas aeruginosa [11]
  Activity: inactive
Pseudomonas aeruginosa [12]
  Activity: Active
Pseudomonas aeruginosa [13]
  Activity: Active
Pseudomonas aeruginosa [14]
  Activity: Active
Pseudomonas aeruginosa [16]
  Activity: Active
Pseudomonas aeruginosa [20]
  Activity: Active
Pseudomonas aeruginosa [47]
  Activity: Active
Pseudomonas aeruginosa [22]
  Activity: Active
Pseudomonas aeruginosa [24]
  Activity: Active
Pseudomonas aeruginosa [25]
  Activity: Active
Pseudomonas aeruginosa [26]
  Activity: Active
Pseudomonas aeruginosa [48]
  Activity: Active
Pseudomonas aeruginosa [27]
  Activity: Active
Pseudomonas aeruginosa [28]
  Activity: inactive
Pseudomonas aeruginosa [30]
  Activity: Active
Pseudomonas aeruginosa [31]
  Activity: Active
Pseudomonas aeruginosa [32]
  Activity: Active
Pseudomonas aeruginosa [33]
  Activity: Active
Pseudomonas aeruginosa [34]
  Activity: Active
Pseudomonas aeruginosa [35]
  Activity: Active
Pseudomonas aeruginosa [36]
  Activity: Active
Pseudomonas aeruginosa [37]
  Activity: Active
Pseudomonas aeruginosa [38]
  Activity: Active
Pseudomonas aeruginosa [40]
  Activity: Active
Pseudomonas aeruginosa [42]
  Activity: Active
Pseudomonas aeruginosa [43]
  Activity: Active
Pseudomonas aeruginosa [44]
  Activity: Active
